Calls of active or inactive are those of the source. The rule behind the calls is not given here.
Key:
MCF7 [1] = test: Growth inhibition of estrogen receptor positive Homo sapiens (human) MCF7 cells after 48 hr by [3H]-thymidine incorporation assay; type: functional
NCI-H460 = test: Growth inhibition of Homo sapiens (human) NCI-H460 cells after 48 hr by [3H]-thymidine incorporation assay; type: functional
MCF7 [2] = test: Antiproliferative activity against estrogen receptor positive Homo sapiens (human) MCF7 cells in steroid free medium after 48 hr by SRB assay; type: functional, cell-based
MCF7 [3] = test: Antiproliferative activity against estrogen receptor positive Homo sapiens (human) MCF7 cells after 48 hr by SRB assay; type: functional, cell-based
MCF7 [4] = test: Antiproliferative activity against estrogen receptor positive Homo sapiens (human) MCF7 cells in complete medium after 48 hr by SRB assay; type: functional, cell-based
MDA-MB-231 [5] = test: Antiproliferative activity against estrogen receptor negative Homo sapiens (human) MDA-MB-231 cells after 48 hr by SRB assay; type: functional, cell-based
MDA-MB-231 [6] = test: Antiproliferative activity against estrogen receptor negative Homo sapiens (human) MDA-MB-231 cells at 0.05 uM after 48 hr by SRB assay; type: functional, cell-based
MDA-MB-231 [7] = test: Growth inhibition of estrogen receptor negative Homo sapiens (human) MDA-MB-231 cells after 48 hr by [3H]-thymidine incorporation assay; type: functional
MCF7 [8] = test: Antiproliferative activity against estrogen receptor positive Homo sapiens (human) MCF7 cells at 0.05 uM after 48 hr by SRB assay; type: functional, cell-based
MCF7 [9] = test: Antiproliferative activity against estrogen receptor positive Homo sapiens (human) MCF7 cells in steroid free medium after 48 hr by SRB assay in presence of ER antagonist 4-OHT; type: functional, cell-based

Structure (SMILES) | GI50 (MCF7 [1]) | GI50 (NCI-H460) | Activity (MCF7 [2]) | Activity (MCF7 [3]) | Activity (MCF7 [4]) | Activity (MDA-MB-231 [5]) | Activity (MDA-MB-231 [6]) | GI50 (MDA-MB-231 [7]) | Activity (MCF7 [8]) | Activity (MCF7 [9])
CC1(C)CCc2cc3c(=O)c4ccccc4oc3c(O)c2O1 [DIHYDRO-12-HYDROXY-2,2-DIMETHYL-2H,6H-PYRANO[3,2-B]XANTHEN-6-ONE] | 5.3 µM | 22 µM | Dose-dependent effect | Dose-dependent effect | Dose-dependent effect | Dose-dependent effect | Active | 29 µM | Active | Active
CC(C)=CCOc1ccc2c(=O)c3ccccc3oc2c1OCC=C(C)C | 21.8 µM | 30.7 µM |  |  |  |  |  | 39 µM |  | 
CC(C)=CCOc1ccc2c(=O)c3ccccc3oc2c1O | 14.2 µM | 20.4 µM | Dose-dependent effect | Dose-dependent effect | Dose-dependent effect | Dose-dependent effect | Active | 29.1 µM | Active | 
